These molecules were tested against human Edg-2 receptor (LPA1 receptor) (Homo sapiens, UniProt Q92633) (assay: Edg-2 receptor inhibition by FLIPR calcium fluorescence measurement (LPA-mediated calcium liberation)). Conditions: CHO cells stably overexpressing human Edg-2 receptor; LPA 18:1 100 nM; fluo-4 fluorescence; triplicate; read-out: Inhibitory concentrations IC50 for inhibition of the Edg-2 receptor.
Type: cell-based
Description: A) Determination of Edg-2 Receptor Inhibition by Fluorescence Imaging Plate Reader (FLIPR) Measurements
The inhibition of the Edg-2 receptor (LPA1 receptor) by the compounds of the invention was quantified by the inhibitory effect on the LPA-mediated calcium liberation in a cell-based calcium fluorescence assay by use of Chinese hamster ovarian (CHO) cells in which the human Edg-2 receptor was stably overexpressed (FIp-In system, Invitrogen). […] Changes in intracellular calcium were determined by fluorescence measurement with the calcium-sensitive dye fluo-4 (Invitrogen) in a fluorescence imaging plate reader (FLIPR, […]).
CHO cells stably overexpressing the human Edg-2 receptor were seeded (40.000 per well) in black clear-bottomed poly-D-lysine-coated 96 well plates (Becton Dickinson, Biocoat cellware) approximately 18-24 h prior to the experiments. Cells were grown in an incubator at 37° C., 5% carbon dioxide and 95% humidity in cell culture media based on F-12 glutamax media (Gibco, #31765) supplemented with 1% (vol/vol) penicilline/streptomycine (PAN, #P06-07100), 10% (vol/vol) fetal calf serum (FCS, PAA, #A15-151) and hygromycin B (Invitrogen, #10687-010) 300 mg/l (final concentrations).
Prior to the FLIPR experiment, cells were loaded with fluo-4 acetoxymethyl ester (fluo-4 AM, Invitrogen, #F14202) for 60 min in an incubator at 37° C., 5% carbon dioxide and 95% humidity in dye-loading buffer consisting of Hanks' Balanced Salt Solution (HBSS, Invitrogen, #14065049) supplemented with fluo-4 AM at 2 μM (all data given for final concentration), Pluronic® F-127 0.05% (vol/vol) (Invitrogen, #P-3000 MP), HEPES 20 mM (Gibco, #15630), probenecid 2.5 mM (Sigma, #P-8761) and bovine serum albumin 0.05% (BSA, Sigma, #A-6003), adjusted to pH 7.5 with sodium hydroxide. During cell loading, fluo-4 AM is cleaved by intracellular esterase resulting in trapping of the dye fluo-4 within the cells. Loading was terminated by washing of the cells in a cell washer (Tecan Power washer) three times with the buffer specified afore but without fluo-4 AM and BSA. This latter buffer was also used as the buffer in the subsequent cell fluorescence measurements.
The dye-loaded and washed cells were pre-incubated for approximately 5 min with various concentrations of the test compound added as a solution in DMSO (0.3% vol/vol maximum final concentration of DMSO), or with DMSO in the respective concentration only (positive control). Subsequent addition of LPA (18:1, 1-oleoyl-sn-glycerol 3-phosphate; 100 nM final concentration) leads to liberation of intracellular calcium from internal stores resulting in a large transient increase of the fluo-4 fluorescence signal which was monitored over approximately 3 min. The percent inhibition caused by the test compound was determined from the maximum fluorescence response after LPA addition to cells pre-incubated with the compound as compared to the maximum fluorescence response after LPA addition to cells pre-incubated with DMSO only. All fluorescence values were corrected for the baseline fluorescence values obtained with cells which were pre-incubated with DMSO only and were not treated with LPA (baseline control). All measurements were performed in triplicate. From the percent inhibitions the inhibitory concentration IC50 was determined.

Chain of human Edg-2 receptor (LPA1 receptor) (Q92633 whole entry): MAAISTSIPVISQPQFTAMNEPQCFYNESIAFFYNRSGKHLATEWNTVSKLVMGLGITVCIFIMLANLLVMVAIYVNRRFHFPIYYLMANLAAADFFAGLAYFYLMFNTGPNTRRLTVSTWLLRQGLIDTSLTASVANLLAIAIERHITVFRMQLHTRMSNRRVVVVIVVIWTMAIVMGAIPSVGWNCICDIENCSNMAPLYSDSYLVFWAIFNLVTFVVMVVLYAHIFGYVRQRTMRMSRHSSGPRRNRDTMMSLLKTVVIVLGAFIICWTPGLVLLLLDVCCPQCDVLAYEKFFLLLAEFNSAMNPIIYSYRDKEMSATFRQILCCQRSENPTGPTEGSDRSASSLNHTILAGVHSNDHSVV

Compound	IC50 [nM]
COc1ccc(C(=O)NC2(C(=O)O)Cc3ccccc3C2O)cc1OCCc1cccc(C)c1 (single isomer, unassigned) [Example 220, 1-Hydroxy-2-[4-methoxy-3-(2-m-tolyl-ethoxy)-benzoylamino]-indane-2-carboxylic acid]	< 100
Cc1cccc(CCOc2cc(C(=O)NC3(C(=O)O)Cc4ccccc4C3)ccc2Br)c1 [Example 2, 2-[4-Bromo-3-(2-m-tolyl-ethoxy)-benzoylamino]-indane-2-carboxylic acid]	< 100
CSc1ccc(C(=O)NC2(C(=O)O)Cc3ccccc3C2)cc1OCCc1cccc(C)c1 [Example 4, 2-[4-Methylsulfanyl-3-(2-m-tolyl-ethoxy)-benzoylamino]-indane-2-carboxylic acid]	< 100
Cc1cccc(CCOc2cc(C(=O)NC3(C(=O)O)Cc4ccccc4C3)ccc2[S+](C)[O-])c1 (centres unmarked) [Example 5, 2-[4-Methanesulfinyl-3-(2-m-tolyl-ethoxy)-benzoylamino]-indane-2-carboxylic acid]	1000 to 30000
Cc1cccc(CCOc2cc(C(=O)NC3(C(=O)O)Cc4ccccc4C3)ccc2S(C)(=O)=O)c1 [Example 6, 2-[4-Methanesulfonyl-3-(2-m-tolyl-ethoxy)-benzoylamino]-indane-2-carboxylic acid]	1000 to 30000
CC(=O)c1ccc(C(=O)NC2(C(=O)O)Cc3ccccc3C2)cc1OCCc1cccc(C)c1 [Example 8, 2-[4-Acetyl-3-(2-m-tolyl-ethoxy)-benzoylamino]-indane-2-carboxylic acid]	100 to 1000
Cc1cccc(CCOc2cc(C(=O)NC3(C(=O)O)Cc4ccccc4C3)ccc2C(C)O)c1 (centres unmarked) [Example 9, 2-[4-(1-Hydroxy-ethyl)-3-(2-m-tolyl-ethoxy)-benzoylamino]-indane-2-carboxylic acid]	100 to 1000
CCc1ccc(C(=O)NC2(C(=O)O)Cc3ccccc3C2)cc1OCCc1cccc(C)c1 [Example 10, 2-[4-Ethyl-3-(2-m-tolyl-ethoxy)-benzoylamino]-indane-2-carboxylic acid]	< 100
Cc1cccc(CCOc2cc(C(=O)NC3(C(=O)O)Cc4ccccc4C3)ccc2C(C)F)c1 (centres unmarked) [Example 11, 2-[4-(1-Fluoro-ethyl)-3-(2-m-tolyl-ethoxy)-benzoylamino]-indane-2-carboxylic acid]	< 100
CCOc1ccc(C(=O)NC2(C(=O)O)Cc3ccccc3C2)cc1OCCc1cccc(C)c1 [Example 12, 2-[4-Ethoxy-3-(2-m-tolyl-ethoxy)-benzoylamino]-indane-2-carboxylic acid]	< 100
COc1ccc(C(=O)NC2(C(=O)O)Cc3ccccc3C2)cc1OCCc1cccc(C)c1 [Example 14, 2-[4-Methoxy-3-(2-m-tolyl-ethoxy)-benzoylamino]-indane-2-carboxylic acid]	< 100
COc1ccc(C(=O)NC2(C(=O)O)Cc3ccccc3C2)cc1OCCc1cccc(SC)c1 [Example 16, 2-{4-Methoxy-3-[2-(3-methylsulfanyl-phenyl)-ethoxy]-benzoylamino}-indane-2-carboxylic acid]	< 100
COc1ccc(C(=O)NC2(C(=O)O)Cc3ccccc3C2)cc1OCCc1cccc([S+](C)[O-])c1 (centres unmarked) [Example 17, 2-{3-[2-(3-Methanesulfinyl-phenyl)-ethoxy]-4-methoxy-benzoylamino}-indane-2-carboxylic acid]	1000 to 30000
COc1ccc(C(=O)NC2(C(=O)O)Cc3ccccc3C2)cc1OCCc1cccc(S(C)(=O)=O)c1 [Example 18, 2-{3-[2-(3-Methanesulfonyl-phenyl)-ethoxy]-4-methoxy-benzoylamino}-indane-2-carboxylic acid]	1000 to 30000
COc1ccc(C(=O)NC2(C(=O)O)Cc3ccccc3C2)cc1OCCc1cccc(SC(F)(F)F)c1 [Example 19]	< 100
COc1ccc(C(=O)NC2(C(=O)O)Cc3ccccc3C2)cc1OCCc1cc(C)ccc1F [Example 20]	< 100
COc1ccc(C(=O)NC2(C(=O)O)Cc3ccccc3C2)cc1OCCc1cccc(C2CC2)c1 [Example 21, 2-{3-[2-(3-cyclopropyl-phenyl)-ethoxy]-4-methoxy-benzoylamino}-indane-2-carboxylic acid]	< 100
COc1ccc(C(=O)NC2(C(=O)O)Cc3ccccc3C2)cc1OCCc1cc(C)cc(C)c1 [Example 22]	1000 to 30000
CCc1cccc(CCOc2cc(C(=O)NC3(C(=O)O)Cc4ccccc4C3)ccc2OC)c1 [Example 23]	< 100
COc1ccc(C(=O)NC2(C(=O)O)Cc3ccccc3C2)cc1OCC1(c2cccc(C)c2)CC1 [Example 24]	< 100
COc1ccc(C(=O)NC2(C(=O)O)Cc3ccccc3C2)cc1OCCc1cccc(C(C)C)c1 [Example 25]	< 100
COc1ccc(C(=O)NC2(C(=O)O)Cc3ccccc3C2)cc1OCCc1ccc(C#N)cc1 [Example 26]	1000 to 30000

Compound	IC50 [nM]
COCCOCCOc1cc(C(=O)NC2(C(=O)O)Cc3ccccc3C2)ccc1OC [Example 28]	1000 to 30000
CCOc1ccc(COc2cc(C(=O)NC3(C(=O)O)Cc4ccccc4C3)ccc2OC)cc1 [Example 29]	1000 to 30000
COc1ccc(C(=O)NC2(C(=O)O)Cc3ccccc3C2)cc1OCCC1CCCCC1 [Example 30]	1000 to 30000
COc1ccc(C(=O)NC2(C(=O)O)Cc3ccccc3C2)cc1OCCc1c[nH]c2ccccc12 [Example 32]	1000 to 30000
COCCOc1cc(C(=O)NC2(C(=O)O)Cc3ccccc3C2)ccc1OC [Example 33]	1000 to 30000
COc1ccc(C(=O)NC2(C(=O)O)Cc3ccccc3C2)cc1OCCCCc1ccccc1 [Example 34]	1000 to 30000
COc1ccc(C(=O)NC2(C(=O)O)Cc3ccccc3C2)cc1OCC(C)C [Example 35]	1000 to 30000
COc1ccc(C(=O)NC2(C(=O)O)Cc3ccccc3C2)cc1OCCC(C)C [Example 36]	1000 to 30000
COc1ccc(C(=O)NC2(C(=O)O)Cc3ccccc3C2)cc1OCC(C)(C)C [Example 37]	1000 to 30000
COc1ccc(C(=O)NC2(C(=O)O)Cc3ccccc3C2)cc1OCC1CCOC1 (centres unmarked) [Example 38]	1000 to 30000
COc1ccc(C(=O)NC2(C(=O)O)Cc3ccccc3C2)cc1OCc1ccc(Cl)cc1 [Example 39]	1000 to 30000
COc1ccc(C(=O)NC2(C(=O)O)Cc3ccccc3C2)cc1OCc1ccc(C(C)(C)C)cc1 [Example 40]	1000 to 30000
CCc1ccc(COc2cc(C(=O)NC3(C(=O)O)Cc4ccccc4C3)ccc2OC)cc1 [Example 41]	1000 to 30000
COc1ccc(C(=O)NC2(C(=O)O)Cc3ccccc3C2)cc1OCC1CCCC1 [Example 42]	1000 to 30000
COc1ccc(C(=O)NC2(C(=O)O)Cc3ccccc3C2)cc1OCCCC(C)C [Example 43]	1000 to 30000
COc1ccc(C(=O)NC2(C(=O)O)Cc3ccccc3C2)cc1OCCc1cccc2ccccc12 [Example 44]	1000 to 30000
COc1ccc(C(=O)NC2(C(=O)O)Cc3ccccc3C2)cc1OC/C=C/c1ccccc1 [Example 45]	1000 to 30000
COc1ccc(C(=O)NC2(C(=O)O)Cc3ccccc3C2)cc1OCCc1ccccc1C(F)(F)F [Example 47]	1000 to 30000
COc1ccc(C(=O)NC2(C(=O)O)Cc3ccccc3C2)cc1OCC1CCCN(C)C1 (centres unmarked) [Example 48]	1000 to 30000
CCN(CC)CCCOc1cc(C(=O)NC2(C(=O)O)Cc3ccccc3C2)ccc1OC [Example 49]	1000 to 30000
COc1ccc(C(=O)NC2(C(=O)O)Cc3ccccc3C2)cc1OCC1CC=CCC1 (centres unmarked) [Example 50]	100 to 1000
COc1ccc(C(=O)NC2(C(=O)O)Cc3ccccc3C2)cc1OCc1nccc(Cl)c1OC [Example 52]	1000 to 30000
